The source made the active and inactive calls. The calls are words filed in the database; no cut-off is given here.
How the values were obtained:
PBL [1] = experiment: Cytotoxicity in human PBL assessed as nuclear division index at 330 uM co-treated with ethyl methanesulfonate (reference value: 1.65 +/- 0.06 nuclear division index); assay type: cell-based
PBL [2] = experiment: Cytotoxicity in human PBL assessed as nuclear division index at 33 uM treated after treatment with colcemid (reference value: 1.59 +/- 0.08 nuclear division index); assay type: cell-based
PBL [3] = experiment: (§1) Antimutagenic activity in human PBL assessed as inhibition of ethyl methanesulfonate-induced frequency of micronucleus per 1000 binucleated lymphocyte cells at 33 uM co-treated with ethyl methanesulfonate by cytokinesis blocking technique (reference value: 4.00 +/- 0.41 micronucleus frequency/1000 binucleated lymphocyte cells); assay type: functional
PBL [4] = experiment: as §1, with “0.3” for “33”, “pretreated before” for “co-treated with”, “3.33” for “4.00”, “0.88” for “0.41”; assay type: functional
PBL [5] = experiment: as §1, with “330” for “33”; assay type: functional
PBL [6] = experiment: as §1, with “pretreated before” for “co-treated with”, “3.33” for “4.00”, “0.88” for “0.41”; assay type: functional
PBL [7] = experiment: Cytotoxicity in human PBL assessed as nuclear division index at 0.3 uM pretreated before ethyl methanesulfonate (reference value: 1.63 +/- 0.11 nuclear division index); assay type: cell-based
PBL [8] = experiment: Cytotoxicity in human PBL assessed as nuclear division index at 0.3 uM pretreated before colcemid (reference value: 1.63 +/- 0.11 nuclear division index); assay type: cell-based
PBL [9] = experiment: (§2) Antimutagenic activity in human PBL assessed as inhibition of colcemid-induced frequency of micronucleus per 1000 binucleated lymphocyte cells at 0.3 uM treated after treatment with colcemid by cytokinesis blocking technique (reference value: 3.33 +/- 0.33 micronucleus frequency/1000 binucleated lymphocyte cells); assay type: functional
PBL [10] = experiment: Cytotoxicity in human PBL assessed as nuclear division index at 0.3 to 330 uM; assay type: cell-based
PBL [11] = experiment: Cytotoxicity in human PBL assessed as nuclear division index at 33 uM treated after treatment with ethyl methanesulfonate (reference value: 1.59 +/- 0.08 nuclear division index); assay type: cell-based
PBL [12] = experiment: as §2, with “ethyl methanesulfonate-induced” for “colcemid-induced”, “ethyl methanesulfonate” for “colcemid”; assay type: functional
PBL [13] = experiment: as §2, with “at 33” for “at 0.3”; assay type: functional
PBL [14] = experiment: as §2, with “of ethyl methanesulfonate-induced” for “of colcemid-induced”, “at 3.3” for “at 0.3”, “with ethyl methanesulfonate” for “with colcemid”; assay type: functional
PBL [15] = experiment: as §1, with “0.3” for “33”; assay type: functional
PBL [16] = experiment: Cytotoxicity in human PBL assessed as nuclear division index at 33 uM pretreated before ethyl methanesulfonate (reference value: 1.63 +/- 0.11 nuclear division index); assay type: cell-based
PBL [17] = experiment: as §2, with “3.3” for “0.3”, “pretreated before” for “treated after treatment with”, “0.88” for “0.33”; assay type: functional
PBL [18] = experiment: Cytotoxicity in human PBL assessed as nuclear division index at 33 uM co-treated with colcemid (reference value: 1.65 +/- 0.06 nuclear division index); assay type: cell-based
PBL [19] = experiment: Cytotoxicity in human PBL assessed as nuclear division index at 3.3 uM pretreated before colcemid (reference value: 1.63 +/- 0.11 nuclear division index); assay type: cell-based
PBL [20] = experiment: Cytotoxicity in human PBL assessed as nuclear division index at 330 uM treated after treatment with colcemid (reference value: 1.59 +/- 0.08 nuclear division index); assay type: cell-based
PBL [21] = experiment: as §2, with “330” for “0.3”, “pretreated before” for “treated after treatment with”, “0.88” for “0.33”; assay type: functional, cell-based
PBL [22] = experiment: as §1, with “1930” for “33”, “pretreated before” for “co-treated with”, “3.33” for “4.00”, “0.88” for “0.41”; assay type: functional
PBL [23] = experiment: as §1, with “1930” for “33”; assay type: functional
PBL [24] = experiment: as §2, with “at 3.3” for “at 0.3”; assay type: functional
PBL [25] = experiment: as §2, with “of ethyl methanesulfonate-induced” for “of colcemid-induced”, “at 33” for “at 0.3”, “with ethyl methanesulfonate” for “with colcemid”; assay type: functional
PBL [26] = experiment: as §1, with “colcemid-induced” for “ethyl methanesulfonate-induced”, “0.3” for “33”, “colcemid” for “ethyl methanesulfonate”; assay type: functional
PBL [27] = experiment: Cytotoxicity in human PBL assessed as nuclear division index at 330 uM pretreated before ethyl methanesulfonate (reference value: 1.63 +/- 0.11 nuclear division index); assay type: cell-based
PBL [28] = experiment: Cytotoxicity in human PBL assessed as nuclear division index at 1930 uM treated after treatment with ethyl methanesulfonate (reference value: 1.59 +/- 0.08 nuclear division index); assay type: cell-based
PBL [29] = experiment: Cytotoxicity in human PBL assessed as nuclear division index at 330 uM treated after treatment with ethyl methanesulfonate (reference value: 1.59 +/- 0.08 nuclear division index); assay type: cell-based
PBL [30] = experiment: Cytotoxicity in human PBL assessed as nuclear division index at 33 uM co-treated with ethyl methanesulfonate (reference value: 1.65 +/- 0.06 nuclear division index); assay type: cell-based
PBL [31] = experiment: Genotoxicity in human PBL assessed as micronucleus frequency at 0.3 to 330 uM; assay type: toxicity, cell-based
PBL [32] = experiment: as §2, with “0.054” for “0.3”, “pretreated before” for “treated after treatment with”, “0.88” for “0.33”; assay type: functional
PBL [33] = experiment: Cytotoxicity in human PBL assessed as nuclear division index at 3.3 uM treated after treatment with colcemid (reference value: 1.59 +/- 0.08 nuclear division index); assay type: cell-based
PBL [34] = experiment: as §2, with “of ethyl methanesulfonate-induced” for “of colcemid-induced”, “at 1930” for “at 0.3”, “with ethyl methanesulfonate” for “with colcemid”; assay type: functional
PBL [35] = experiment: Cytotoxicity in human PBL assessed as nuclear division index at 3.3 uM co-treated with colcemid (reference value: 1.65 +/- 0.06 nuclear division index); assay type: cell-based
PBL [36] = experiment: (§3) Antimutagenic activity in human PBL assessed as inhibition of colcemid-induced frequency of micronucleus per 1000 binucleated lymphocyte cells at 33 uM co-treated with colcemid by cytokinesis blocking technique (reference value: 4.00 +/- 0.41 micronucleus frequency/1000 binucleated lymphocyte cells); assay type: functional
PBL [37] = experiment: as §2, with “at 330” for “at 0.3”; assay type: functional
PBL [38] = experiment: as §3, with “0.054” for “33”; assay type: functional
PBL [39] = experiment: as §1, with “3.3” for “33”; assay type: functional
PBL [40] = experiment: Cytotoxicity in human PBL assessed as nuclear division index at 0.3 uM co-treated with ethyl methanesulfonate (reference value: 1.65 +/- 0.06 nuclear division index); assay type: cell-based
PBL [41] = experiment: Cytotoxicity in human PBL assessed as nuclear division index at 1930 uM pretreated before ethyl methanesulfonate (reference value: 1.63 +/- 0.11 nuclear division index); assay type: cell-based
PBL [42] = experiment: Cytotoxicity in human PBL assessed as nuclear division index at 3.3 uM treated after treatment with ethyl methanesulfonate (reference value: 1.59 +/- 0.08 nuclear division index); assay type: cell-based
PBL [43] = experiment: Cytotoxicity in human PBL assessed as nuclear division index at 0.054 uM treated after treatment with colcemid (reference value: 1.59 +/- 0.08 nuclear division index); assay type: cell-based
PBL [44] = experiment: Cytotoxicity in human PBL assessed as nuclear division index at 0.054 uM pretreated before colcemid (reference value: 1.63 +/- 0.11 nuclear division index); assay type: cell-based
PBL [45] = experiment: Cytotoxicity in human PBL assessed as nuclear division index at 0.3 uM treated after treatment with colcemid (reference value: 1.59 +/- 0.08 nuclear division index); assay type: cell-based
PBL [46] = experiment: as §2, with “of ethyl methanesulfonate-induced” for “of colcemid-induced”, “at 330” for “at 0.3”, “with ethyl methanesulfonate” for “with colcemid”; assay type: functional
PBL [47] = experiment: Cytotoxicity in human PBL assessed as nuclear division index at 33 uM pretreated before colcemid (reference value: 1.63 +/- 0.11 nuclear division index); assay type: cell-based
PBL [48] = experiment: Cytotoxicity in human PBL assessed as nuclear division index at 330 uM pretreated before colcemid (reference value: 1.63 +/- 0.11 nuclear division index); assay type: cell-based
PBL [49] = experiment: Cytotoxicity in human PBL assessed as nuclear division index at 0.3 uM co-treated with colcemid (reference value: 1.65 +/- 0.06 nuclear division index); assay type: cell-based
PBL [50] = experiment: Cytotoxicity in human PBL assessed as nuclear division index at 330 uM co-treated with colcemid (reference value: 1.65 +/- 0.06 nuclear division index); assay type: cell-based
PBL [51] = experiment: as §3, with “3.3” for “33”; assay type: functional
PBL [52] = experiment: as §3, with “pretreated before” for “co-treated with”, “3.33” for “4.00”, “0.88” for “0.41”; assay type: functional
PBL [53] = experiment: as §2, with “at 0.054” for “at 0.3”; assay type: functional
PBL [54] = experiment: as §3, with “330” for “33”; assay type: functional
PBL [55] = experiment: Cytotoxicity in human PBL assessed as nuclear division index at 3.3 uM pretreated before ethyl methanesulfonate (reference value: 1.63 +/- 0.11 nuclear division index); assay type: cell-based
PBL [56] = experiment: as §1, with “330” for “33”, “pretreated before” for “co-treated with”, “3.33” for “4.00”, “0.88” for “0.41”; assay type: functional
PBL [57] = experiment: Cytotoxicity in human PBL assessed as nuclear division index at 1930 uM co-treated with ethyl methanesulfonate (reference value: 1.65 +/- 0.06 nuclear division index); assay type: cell-based
PBL [58] = experiment: as §1, with “3.3” for “33”, “pretreated before” for “co-treated with”, “3.33” for “4.00”, “0.88” for “0.41”; assay type: functional
PBL [59] = experiment: Cytotoxicity in human PBL assessed as nuclear division index at 3.3 uM co-treated with ethyl methanesulfonate (reference value: 1.65 +/- 0.06 nuclear division index); assay type: cell-based
PBL [60] = experiment: Cytotoxicity in human PBL assessed as nuclear division index at 0.054 uM co-treated with colcemid (reference value: 1.65 +/- 0.06 nuclear division index); assay type: cell-based
PBL [61] = experiment: as §2, with “pretreated before” for “treated after treatment with”, “0.88” for “0.33”; assay type: functional
PBL [62] = experiment: Cytotoxicity in human PBL assessed as nuclear division index at 0.3 uM treated after treatment with ethyl methanesulfonate (reference value: 1.59 +/- 0.08 nuclear division index); assay type: cell-based

C=C[C@@]1(C)CC[C@H]2C(=CC[C@@H](C(=C)C)[C@]2(C)CCC(=O)[O-])C1.[Na+]
Activity (PBL [1]): 1.63
Activity (PBL [2]): 1.56
Activity (PBL [3]): 5.5
Activity (PBL [4]): 5.5
Activity (PBL [5]): 4.5
Activity (PBL [6]): 3.75
Activity (PBL [7]): 1.46
Activity (PBL [8]): 1.44
Activity (PBL [9]): 11.25
Activity (PBL [10]): Non-toxic
Activity (PBL [11]): 1.36
Activity (PBL [12]): 19.25
Activity (PBL [13]): 11.75
Activity (PBL [14]): 19.75
Activity (PBL [15]): 4
Activity (PBL [16]): 1.42
Activity (PBL [17]): 18.42
Activity (PBL [18]): 1.51
Activity (PBL [19]): 1.28
Activity (PBL [20]): 1.56
Activity (PBL [21]): inactive
Activity (PBL [22]): 14
Activity (PBL [23]): 15.8
Activity (PBL [24]): 12.25
Activity (PBL [25]): 19.5
Activity (PBL [26]): 21.5
Activity (PBL [27]): 1.28
Activity (PBL [28]): 1.41
Activity (PBL [29]): 1.31
Activity (PBL [30]): 1.53
Activity (PBL [31]): Non-toxic
Activity (PBL [32]): 22.75
Activity (PBL [33]): 1.58
Activity (PBL [34]): 20.14
Activity (PBL [35]): 1.42
Activity (PBL [36]): 21
Activity (PBL [37]): 12.5
Activity (PBL [38]): 24.78
Activity (PBL [39]): 6.75
Activity (PBL [40]): 1.38
Activity (PBL [41]): 1.53
Activity (PBL [42]): 1.36
Activity (PBL [43]): 1.65
Activity (PBL [44]): 1.52
Activity (PBL [45]): 1.59
Activity (PBL [46]): 20
Activity (PBL [47]): 1.31
Activity (PBL [48]): 1.03
Activity (PBL [49]): 1.37
Activity (PBL [50]): 1.41
Activity (PBL [51]): 21.25
Activity (PBL [52]): 18
Activity (PBL [53]): 12.25
Activity (PBL [54]): 20.25
Activity (PBL [55]): 1.49
Activity (PBL [56]): 4
Activity (PBL [57]): 1.55
Activity (PBL [58]): 5.75
Activity (PBL [59]): 1.58
Activity (PBL [60]): 1.39
Activity (PBL [61]): 19.25
Activity (PBL [62]): 1.43

— ChEMBL document CHEMBL2086272, “Anticlastogenic effect in human lymphocytes by the sodium salt of 3,4-secoisopimar-4(18),7,15-trien-3-oic acid” (J Nat Prod, 2012)
